# Biological target: β2AR-Gs complex (Homo sapiens, UniProt P07550)
# Assay: Negative stain EM analysis of β2AR-Gs complex
# Method: A β2AR-Gs protein complex was prepared for electron microscopy using the conventional negative staining protocol, and imaged at room temperature with a Tecnai T12 electron microscope operated at 120 kV using low-dose procedures. Images were recorded at a magnification of 71,138× and a defocus value of approximately 1.4μ using a Gatan US4000 CCD camera. All images were binned (2×2 pixels) to obtain a pixel size of 4.16 A at the specimen level. Particles were manually excised using e2boxer (part of the EMAN2 software suite). 2D reference-free alignment and classification of particle projections were performed using ISAC. 14,556 projections of β2AR-Gs were subjected to ISAC, producing 199 classes consistent over two-way matching and accounting for 10,100 particle projections.
compound,measurement,value
CCCCCCCCCCCOCC1C2CC([C@H]1COCCCCCCCCCCC)[C@H](O[C@@H]1OC(CO)[C@@H](O[C@H]3OC(CO)[C@@H](O)C(O)C3O)C(O)C1O)C2O[C@@H]1OC(CO)[C@@H](O[C@H]2OC(CO)[C@@H](O)C(O)C2O)C(O)C1O (stereo partly shown) [X-NBM-C11],Particle dispersity of β2AR-Gs complex in negative stain EM,highly mono-dispersed particles
